According to patent US12403141B2, “Deuterated MK2 pathway inhibitors and methods of using the same” (ACLARIS THERAPEUTICS, INC., priority 2019, dated 2025):
“Also recorded” adds a separate entry of the source. Read-outs that look alike come from different tables or passages of the source.

Experiments:
human hepatocytes = test: In vitro metabolite profile in human hepatocytes; format: in vitro ADME; parameters: key to UV % at 280-290 nm or observed (+ or --), metabolite M387 (O-dealkylation) / UV % at 280-290 nm or observed (+ or --), metabolite M532b (Hydroxylation) / UV % at 280-290 nm or observed (+ or --), metabolite M532e (Hydroxylation) / UV % at 280-290 nm or observed (+ or --), metabolite M563 (O-dealkylation + Glucuronidation) / UV % at 280-290 nm or observed (+ or --), metabolite M530b (Hydroxylation) / UV % at 280-290 nm or observed (+ or --), metabolite M530e (Hydroxylation): +: only detected by MS; --: not detected or trace; details: 10 μM; for UV % at 280-290 nm, Parent-T0 min: T0 min (normalized as 100%)
Description: (§1) Briefly, each test compound (final concentration of 10 μM containing 0.1% DMSO) was incubated with rat, dog, minipig, monkey, or human hepatocytes (final viable cell density of 1×10^6 cells/mL) at 37° C. with 5% CO2 in HI hepatocyte maintenance media (BIOIVT; Catalog #Z99009) for 120 minutes. Reactions were initiated by combining 200 μL of pre-warmed 2× dosing solution containing 20 μM test compound and 0.2% DMSO in HI maintenance media with 200 μL of pre-warmed hepatocyte solution containing 2×10^6 cells/mL in HI maintenance media. Samples were taken at 0 minutes (T0) and 120 minutes (T120) by quenching the reaction with 1200 μL acetonitrile. After quenching, the samples were sonicated for 2 minutes and then centrifuged at 1400 rpm for 5 minutes. A 1400-μL aliquot of the supernatant was evaporated under a stream of N2 until dry. The dried extracts were then reconstituted with 200 μL acetonitrile: H2O (1:3 v/v), vortexed for 2 minutes and centrifuged at 14000 rpm for 5 minutes. A 2-μL aliquot of the supernatant was injected onto a Xevo UPLC-UV-G2-S Q-Tof system (Waters®) with positive-ion electrospray ionization for analysis. Chromatographic separation was achieved on an Acquity UPLC®BEH C18 column (2.1×50 mm, 1.7 μm; Waters®) by gradient elution using varying proportions of mobile phase A (H2O with 0.1% formic acid) and mobile phase B (acetonitrile with 0.1% formic acid) at a constant flow rate of 400 μL/minute over a total run time of 10 minutes. LC-UV-MS extract ion chromatograms (EIC) of the T120 samples were compared to the T0 samples to identify the major putative metabolites which were named as Mm/z.

[1] = IV pharmacokinetics in male SD rats; format: in vivo, rat; details: for clearance: male, Sprague-Dawley, rat, plasma, iv
Description: (§2) Pharmacokinetic parameters of some examples were evaluated in male Sprague Dawley (SD) rats after intravenous (IV) and oral (PO) dosing. Male SD rats (5-6 weeks of age) were fasted for 12 hours before administration of the compound of interest. Animals were allowed access to food 2 h after dosing and water was given ad libitum. Except for the compound of Example 13, pharmacokinetic experiments comparing deuterium containing and non-deuterium containing compounds were performed at the same time using the same cohort of animals. The pharmacokinetic properties of the compound of Example 13 were evaluated separately and compared to previously generated data.
For IV dosing, a 0.5 mg/mL solution of the test compound was prepared in a vehicle consisting of 5% DMSO, 5% Cremophore, 90% normal saline. For a 1 mpk dose, 2 mL/kg of this dosing vehicle was administered to each rat by bolus injection into the tail vein. For lower doses, the dosing solution was diluted with the appropriate amount of vehicle. Example 3 was evaluated at 3 mpk by preparing a 1.5 mg/mL solution in the same vehicle and dosing 2 mL/kg. Blood samples from each animal was collected in di-sodium EDTA coated containers at 0.12, 0.25, 0.5, 1.0, 2.0, 4.0, 8.0 and 24.0 hours after dosing. Plasma was separated from the blood samples within 15 minutes following collection and stored at −20±5° C. before analysis.
A standard curve was generated from a stock solution of the test compound with known concentration in methanol. Working solutions having known concentrations ranging from 5-20,000 ng/mL were prepared from the stock solution by dilution with methanol:water (80:20 v/v). 5 uL of the working solutions were added to 45 uL of blank rat plasma to provide standard samples for analysis.
Plasma samples collected from rats after dosing were allowed to reach room temperature. A 50 uL aliquot of each plasma sample and the standard curve plasma samples were treated with 200 uL of acetonitrile containing an internal standard (100 ng/mL; warfarin/diclofenac) and mixed well. The samples were vortexed for 5 minutes followed by centrifugation for 5 minutes at 14000 rpm at 4° C. The supernatant (10 uL) was analyzed by LC-MS/MS (LC: Shimadzu SIL HTc, MS: MDS Sciex API-5500 & 4000 using 75%/25% acetonitrile/0.2% formic acid in Milli-Q water, flow rate: 1.0 mL/min, run time 3 minutes, Atlantis dC18(50×4.6 mm, 3 um; Waters®)) and the concentrations of the test compound in the plasma samples collected from rats at each time point were determined by comparison to the standard curve samples.
Pharmacokinetic parameters were calculated from the plasma concentrations at each time point using Phoenix WinNonlin (Version 7.0) by the non-compartmental analysis (NCA) method. Clearance values are reported as mL/min/kg. AUC values are reported as ng·h/mL.

minipig hepatocytes = test: In vitro metabolite profile in minipig hepatocytes; format: in vitro ADME; parameters: key to UV % at 280-290 nm or observed (+ or --), metabolite M532b (Hydroxylation) / UV % at 280-290 nm or observed (+ or --), metabolite M532c (Hydroxylation) / UV % at 280-290 nm or observed (+ or --), metabolite M563 (O-dealkylation + Glucuronidation) / UV % at 280-290 nm or observed (+ or --), metabolite M530b (Hydroxylation) / UV % at 280-290 nm or observed (+ or --), metabolite M530c (Hydroxylation): +: only detected by MS; --: not detected or trace; details: 10 μM; for UV % at 280-290 nm, Parent-T0 min: T0 min (normalized as 100%)
Description: as §1

[2] = PO pharmacokinetics in male SD rats; format: in vivo, rat; details: PO 2 mpk
Description: as §2
For oral (PO) dosing, a 0.2 mg/mL suspension of the test compound was prepared in a vehicle comprising 0.5% Tween-20 in 0.5% methyl cellulose in phosphate buffered saline (PBS). For a 2 mpk dose, 10 mL/kg of this dosing vehicle was administered by oral gavage. Blood samples from each animal was collected di-sodium EDTA coated containers at 0.25, 0.5, 1.0, 2.0, 4.0, 8.0 10.0 and 24.0 hours after dosing. Plasma was separated from the blood samples within 15 minutes following collection and stored at −20±5° C. before analysis.
A standard curve was generated from a stock solution of the test compound with known concentration in methanol. […]
Plasma samples collected from rats after dosing were allowed to reach room temperature. […] The supernatant (10 uL) was analyzed by LC-MS/MS (LC: Shimadzu SIL HTc, MS: MDS Sciex API-5500 & 4000 using 75%/25% acetonitrile/0.2% formic acid in Milli-Q water, flow rate: 1.0 mL/min, run time 3 minutes, Atlantis dC18(50×4.6 mm, 3 um; Waters®)) and the concentrations of the test compound in the plasma samples collected from rats at each time point were determined by comparison to the standard curve samples.
Pharmacokinetic parameters were calculated from the plasma concentrations at each time point using Phoenix WinNonlin (Version 7.0) by the non-compartmental analysis (NCA) method. […]

[3] = 120 min, relative to parent at T0

## [2H]C([2H])(Oc1cc(C)n(-c2cc(-c3ccnc(C(C)(C)O)n3)ncc2C)c(=O)c1Cl)c1ncc(F)cc1F (single isomer, unassigned) [Example 1-D2, (P)-3-Chloro-4-((3,5-difluoropyridin-2-yl)methoxy-d2)-2′-(2-(2-hydroxypropan-2-yl)pyrimidin-4-yl)-5′,6-dimethyl-2H-[1,4′-bipyridin]-2-one]
Human hepatocytes; [3]
  UV % at 280-290 nm or observed (+ or --), metabolite M387 (O-dealkylation): +
  UV % at 280-290 nm or observed (+ or --), metabolite M532b (Hydroxylation): +
  UV % at 280-290 nm or observed (+ or --), metabolite M532e (Hydroxylation): +
  UV % at 280-290 nm, Parent-T120 min: 88.2%
Human hepatocytes
  UV % at 280-290 nm, Parent-T0 min: 100.0%
[1]; IV, versus non-deuterated comparator Example 1-H2
  effect of deuterium substitution on clearance: clear and consistent reduction in clearance
[1]; 0.1 mg/kg, IV 0.1 mpk, ± one standard deviation, read-out: IV clearance 0.1 mpk
  clearance: 0.96 ± 0.24 L/h/kg
[1]; 0.3 mg/kg, IV 0.3 mpk, ± one standard deviation, read-out: IV clearance 0.3 mpk
  clearance: 0.72 ± 0.18 L/h/kg
[1]; 1 mg/kg, IV 1 mpk, ± one standard deviation, read-out: IV clearance 1 mpk
  clearance: 0.57 L/h/kg
Minipig hepatocytes; [3]
  UV % at 280-290 nm or observed (+ or --), metabolite M532b (Hydroxylation): +
  UV % at 280-290 nm or observed (+ or --), metabolite M532c (Hydroxylation): +
  UV % at 280-290 nm, Parent-T120 min: 81.1%
Minipig hepatocytes
  UV % at 280-290 nm, Parent-T0 min: 100.0%
[2]; versus non-deuterated comparator, listed as Example 1
  effect of deuterium substitution on exposure after PO dosing (AUC): significantly higher exposure; also recorded: increased exposure
[2]; Sprague-Dawley, rat, plasma, 2 mg/kg, ± one standard deviation, read-out: AUC0-10 hr
  AUC(0-t): 2.02 ± 0.12 µg·h/mL

## Cc1cnc(-c2ccnc(C(C)(C)O)n2)cc1-n1c(C)cc(OCc2ncc(F)cc2F)c(Cl)c1=O (atropisomer, axis not shown; (P)) [Example 1-H2, (P)-3-chloro-4-((3,5-difluoropyridin-2-yl)methoxy)-2′-(2-(2-hydroxypropan-2-yl)pyrimidin-4-yl)-5′,6-dimethyl-2H-[1,4′-bipyridin]-2-one]
Human hepatocytes; [3]
  UV % at 280-290 nm or observed (+ or --), metabolite M387 (O-dealkylation): 3.5%
  UV % at 280-290 nm or observed (+ or --), metabolite M530b (Hydroxylation): +
  UV % at 280-290 nm or observed (+ or --), metabolite M530c (Hydroxylation): 1.3%
  UV % at 280-290 nm or observed (+ or --), metabolite M530e (Hydroxylation): +
  UV % at 280-290 nm or observed (+ or --), metabolite M563 (O-dealkylation + Glucuronidation): --
  UV % at 280-290 nm or observed (+ or --), metabolite M530d (Hydroxylation): 1.5%
  UV % at 280-290 nm, Parent-T120 min: 84.8%
Human hepatocytes
  UV % at 280-290 nm, Parent-T0 min: 100.0%
[1]; IV 0.1 mpk, ± one standard deviation
  IV clearance 0.1 mpk: 1.44 ± 0.24 L/h/kg
[1]; IV 0.3 mpk, ± one standard deviation
  IV clearance 0.3 mpk: 1.38 ± 0.42 L/h/kg
[1]; IV 1 mpk, ± one standard deviation
  IV clearance 1 mpk: 1.44 ± 0.3 L/h/kg
Minipig hepatocytes; [3]
  UV % at 280-290 nm or observed (+ or --), metabolite M387 (O-dealkylation): 14.4%
  UV % at 280-290 nm or observed (+ or --), metabolite M530b (Hydroxylation): --
  UV % at 280-290 nm or observed (+ or --), metabolite M530c (Hydroxylation): +
  UV % at 280-290 nm or observed (+ or --), metabolite M530e (Hydroxylation): 2.4%
  UV % at 280-290 nm or observed (+ or --), metabolite M563 (O-dealkylation + Glucuronidation): +
  UV % at 280-290 nm or observed (+ or --), metabolite M530d (Hydroxylation): 1.6%
  UV % at 280-290 nm, Parent-T120 min: 70.0%
Minipig hepatocytes
  UV % at 280-290 nm, Parent-T0 min: 100.0%
[2]; ± one standard deviation
  AUC0-10 hr: 0.854 ± 0.228 µg·h/mL
